# Reference: patent publication US12729377B2, “RNAi agents and compositions for inhibiting expression of angiopoietin-like 3 (ANGPTL3), and methods of use” (Arrowhead Pharmaceuticals, Inc., priority 2017, dated 2026)
# In the oligonucleotide strings, read from the 5' end, every base follows the letter of its sugar. An asterisk marks phosphorothioate; unmarked linkages are phosphodiester. Other units and linkages are bracketed, terminal groups are in braces. A string of capitals states the bases alone. {NAG37} = tridentate N-acetyl-galactosamine targeting ligand, structure (NAG37)s; [invAb] = inverted abasic unit; m = 2'-O-methyl; f = 2'-fluoro
# How the values were obtained:
# [1] = test system: ANGPTL3 protein; experiment: Example 2: serum ANGPTL3 protein by ELISA in mice; format: in vivo, C57bl/6 mice; conditions: for Avg ANGPTL3 (Average ANGPTL3 Protein Normalized to Pre-Treatment and Control): 3.0 mg/kg single subcutaneous dose on day 1, serum, female C57bl/6 mice
# Experimental: (§1) To assess the in vivo activity of ANGPTL3 RNAi agents that are designed to target different positions on the ANGPTL3 gene, six- to eight-week-old female C57bl/6 mice were used. Pre-dose serum samples were taken at day −1 after a four hour fast. At day 1, each mouse was given a single subcutaneous administration of 200 μl containing either 3 mg/kg (mpk) of an ANGPTL3 RNAi agent in D5W (dextrose in 5% water), or control (D5W) with no RNAi agent, according to the dosing groups recited in Table 7.
# (§2) Each of the RNAi agents included a modified sequence and an N-acetyl-galactosamine-containing targeting ligand conjugated to the 5′ terminal end of the sense strand. (See Tables 3, 4, and 5 for modified sequences and targeting ligand structures). The injections were performed between the skin and muscle (i.e. subcutaneous injections) into the loose skin over the neck and shoulder area. Three (3) mice in each group were tested (n=3). Serum was collected on days 8, […], 22, 29, and day 36 (for Groups 1 and 5-11 only). Mice were fasted for four hours prior to each collection. ANGPTL3 protein levels in serum were measured by ELISA assay (R&D Systems), according to the manufacturer's recommendations. Triglycerides, high-density lipoprotein (HDL), and total cholesterol in serum were measured on a Cobas® Integra 400 (Roche Diagnostics), according to the manufacturer's recommendations.
# (§3) The ANGPTL3 protein levels, triglyceride levels, HDL levels, and total cholesterol levels for each animal were normalized. For normalization, the level of ANGPTL3 protein, triglyceride, HDL, and total cholesterol, respectively, for each animal at a time point, was divided by the pre-treatment level of expression in that animal (in this case at day −1) to determine the ratio of expression “normalized to pre-treatment.” Expression at a specific time point was then normalized to the D5W control group by dividing the “normalized to pre-treatment” ratio for an individual animal by the mean “normalized to pretreatment” ratio of all mice in the D5W control group.
# [2] = test system: ANGPTL3 gene; experiment: Example 8: serum LDL in cynomolgus monkeys; format: in vivo, cynomolgus macaque (Macaca fascicularis); conditions: 3.0 mg/kg single SC injection day 1, cynos, n=2
# Experimental: (§4) Additional ANGPTL3 RNAi agents were evaluated in cynomolgus monkeys. On day 1, cynomolgus macaque (Macaca fascicularis) primates (also referred to herein as “cynos”) were administered a single subcutaneous injection of 0.3 mL/kg (approximately 1-2 mL volume, depending on animal mass) containing 3.0 mg/kg of one of ANGPTL3 RNAi agent AD05577, AD05307, AD05488, AD05654, or AD05659, each formulated in saline.
# (§5) Two (2) cynos in each group were tested (n=2). Blood samples were drawn and serum samples were analyzed on days −8 (pre-dose), 1 (pre-dose), 8, 15, 22, 29, and 36. Cynos were fasted overnight prior to each collection. ANGPTL3 protein levels in serum were measured by ELISA assay (R&D Systems), according to the manufacturer's recommendations. Triglycerides, total cholesterol, high-density lipoprotein (HDL), and low-density lipoprotein (LDL) in serum were measured on a Cobas® Integra 400 (Roche Diagnostics), according to the manufacturer's recommendations.
# (§6) The ANGPTL3 protein levels, triglyceride levels, total cholesterol levels, HDL levels, and LDL levels for each animal were normalized. For normalization, the level of ANGPTL3 protein, triglyceride, HDL, and total cholesterol, respectively, for each animal at a time point, was divided by the average pre-treatment level of expression in that animal (in this case at days −8, and 1 (pre-dose)) to determine the ratio of expression “normalized to pre-treatment.”
# [3] = test system: ANGPTL3 gene; experiment: Example 8: serum total cholesterol in cynomolgus monkeys; format: in vivo, cynomolgus macaque (Macaca fascicularis); conditions: 3.0 mg/kg single SC injection day 1, cynos, n=2
# Experimental: as §4, §5, §6
# [4] = test system: ANGPTL3 gene; experiment: Example 2: serum triglycerides in mice; format: in vivo
# Experimental: as §1, §2, §3
# [5] = test system: ANGPTL3 gene; experiment: Example 2: serum HDL in mice; format: in vivo
# Experimental: as §1, §2, §3
# [6] = Day 8, 3.0 mg/kg single subcutaneous dose on day 1, female C57bl/6 mice
# [7] = Day 13, 3.0 mg/kg single subcutaneous dose on day 1, female C57bl/6 mice
# [8] = Day 22, 3.0 mg/kg single subcutaneous dose on day 1, female C57bl/6 mice
# [9] = Day 29, 3.0 mg/kg single subcutaneous dose on day 1, female C57bl/6 mice
# [10] = Day 36, 3.0 mg/kg single subcutaneous dose on day 1, female C57bl/6 mice
substance,measurement,setting,value
"AD05307: RNAi agent duplex: antisense AM07001-AS, sense AM07000-SS (chain 1 mU*fU*mU*fGmAfAmUfUmAfAmUfGmUfCmCfAmUfGmGmG*mC; chain 2 {NAG37}*[invAb]*mGmCmCmCmAmUmGmGfAfCfAmUmUmAmAmUmUmCmAmAmA*[invAb])",Avg ANGPTL3 (Average ANGPTL3 Protein Normalized to Pre-Treatment and Control),[1]; Day 8,0.117
same,Avg ANGPTL3 (Average ANGPTL3 Protein Normalized to Pre-Treatment and Control),[1]; Day 13,0.120
same,Avg ANGPTL3 (Average ANGPTL3 Protein Normalized to Pre-Treatment and Control),[1]; Day 22,0.134
same,Avg ANGPTL3 (Average ANGPTL3 Protein Normalized to Pre-Treatment and Control),[1]; Day 29,0.206
same,Avg ANGPTL3 (Average ANGPTL3 Protein Normalized to Pre-Treatment and Control),[1]; Day 36,0.216
same,ANGPTL3 protein normalized to pre-treatment and control,"[1]; day 29, single 3 mg/kg subcutaneous, C57bl/6 mice",0.206
same,Average LDL Normalized to Pre-Treatment,[2]; Day 8,1.008
same,Average LDL Normalized to Pre-Treatment,[2]; Day 15,1.102
same,Average LDL Normalized to Pre-Treatment,[2]; Day 22,0.971
same,Average LDL Normalized to Pre-Treatment,[2]; Day 29,1.106
same,Average LDL Normalized to Pre-Treatment,[2]; Day 36,0.894
same,Avg Total Chol normalized to pre-treatment,[3]; Day 8,0.994
same,Avg Total Chol normalized to pre-treatment,[3]; Day 15,1.006
same,Avg Total Chol normalized to pre-treatment,[3]; Day 22,0.905
same,Avg Total Chol normalized to pre-treatment,[3]; Day 29,0.954
same,Avg Total Chol normalized to pre-treatment,[3]; Day 36,0.909
same,Avg TG (Average Triglycerides Normalized to Pre-Treatment and Control),[4]; [6],0.504
same,Avg TG (Average Triglycerides Normalized to Pre-Treatment and Control),[4]; [7],0.655
same,Avg TG (Average Triglycerides Normalized to Pre-Treatment and Control),[4]; [8],0.459
same,Avg TG (Average Triglycerides Normalized to Pre-Treatment and Control),[4]; [9],0.629
same,Avg TG (Average Triglycerides Normalized to Pre-Treatment and Control),[4]; [10],0.602
same,Avg HDL (Average HDL Normalized to Pre-Treatment and Control),[5]; [6],0.633
same,Avg HDL (Average HDL Normalized to Pre-Treatment and Control),[5]; [7],0.524
same,Avg HDL (Average HDL Normalized to Pre-Treatment and Control),[5]; [8],0.588
same,Avg HDL (Average HDL Normalized to Pre-Treatment and Control),[5]; [9],0.724
same,Avg HDL (Average HDL Normalized to Pre-Treatment and Control),[5]; [10],0.702
